Data as given in US9388176B2, “Method of treating conditiions with kinase inhibitors” (Allergan, Inc., priority 2012, dated 2016).

How the values were obtained:
[1] = target: PDGFRβ kinase, purified cytoplasmic domain PDGFR-β protein (Homo sapiens (Human), UniProt P09619); assay: PDGFRβ Kinase Assay; format: biochemical; conditions: 36 μM ATP, poly-Glu-Tyr (4:1) substrate, 60 minute incubation at 30° C., ELISA read at 492 nm
Experimental: Biochemical PDGFRβ kinase assays were performed in 96 well microliter plates that were coated overnight with 75 μg of poly-Glu-Tyr (4:1) in 10 mM Phosphate Buffered Saline (PBS), pH 7.4. The coated plates were washed with 2 mls per well PBS+0.05% Tween-20 (PBS-T), blocked by incubation with PBS containing 1% BSA, then washed with 2 mls per well PBS-T prior to starting the reaction. Reactions were carried out in 100 μL reaction volumes containing 36 μM ATP in kinase buffer (50 mM Hepes buffer pH 7.4, 20 mM MgCl2, 0.1 mM MnCl2 and 0.2 mM Na3VO4). Test compounds were reconstituted in 100% DMSO and added to the reaction to give a final DMSO concentration of 5%. Reactions were initiated by the addition 20 ul per well of kinase buffer containing 200-300 ng purified cytoplasmic domain PDGFR-β protein (Millipore). Following a 60 minute incubation at 30° C., the reactions were washed 2 mls per well PBS-T. 100 μl of a monoclonal anti-phosphotyrosine antibody-peroxidase conjugate diluted 1:10,000 in PBS-T was added to the wells for 30 minutes. Following a 2 mls per well wash with PBS-Tween-20, 100 μl of 0-Phenylenediamine Dihydrochloride in phosphate-citrate buffer, containing urea hydrogen peroxide, was added to the wells for 7-10 minutes as a colorimetric substrate for the peroxidase. The reaction was terminated by the addition of 100 μl of 2.5N H2SO4 to each well and read using a microplate ELISA reader set at 492 nm. IC50 values for compound inhibition were calculated directly from graphs of optical density (arbitrary units) versus compound concentration following subtraction of blank values. […]

[2] = target: VEGFR2 (KDR) kinase, purified cytoplasmic domain KDR protein (Homo sapiens (Human), UniProt P35968); assay: VEGFR2 Kinase Assay; format: biochemical; conditions: 2.7 μM ATP, poly-Glu-Tyr (4:1) substrate, 15 minute incubation at 30° C., ELISA read at 492 nm
Experimental: Biochemical KDR kinase assays were performed in 96 well microliter plates that were coated overnight with 75 μg/well of poly-Glu-Tyr (4:1) in 10 mM Phosphate Buffered Saline (PBS), pH 7.4. The coated plates were washed with 2 mls per well PBS+0.05% Tween-20 (PBS-T), blocked by incubation with PBS containing 1% BSA, then washed with 2 mls per well PBS-T prior to starting the reaction. […] Reactions were initiated by the addition 20 ul per well of kinase buffer containing 200-300 ng purified cytoplasmic domain KDR protein (BPS Bioscience, San Diego, Calif.). Following a 15 minute incubation at 30° C., the reactions were washed 2 mls per well PBS-T. 100 μl of a monoclonal anti-phosphotyrosine antibody-peroxidase conjugate diluted 1:10,000 in PBS-T was added to the wells for 30 minutes. Following a 2 mls per well wash with PBS-Tween-20, 100 μl of O-Phenylenediamine Dihydrochloride in phosphate-citrate buffer, containing urea hydrogen peroxide, was added to the wells for 7-10 minutes as a colorimetric substrate for the peroxidase. […] IC50 values for compound inhibition were calculated directly from graphs of optical density (arbitrary units) versus compound concentration following subtraction of blank values.

PDGFRβ kinase, purified cytoplasmic domain PDGFR-β protein, sequence (P09619 554-1106): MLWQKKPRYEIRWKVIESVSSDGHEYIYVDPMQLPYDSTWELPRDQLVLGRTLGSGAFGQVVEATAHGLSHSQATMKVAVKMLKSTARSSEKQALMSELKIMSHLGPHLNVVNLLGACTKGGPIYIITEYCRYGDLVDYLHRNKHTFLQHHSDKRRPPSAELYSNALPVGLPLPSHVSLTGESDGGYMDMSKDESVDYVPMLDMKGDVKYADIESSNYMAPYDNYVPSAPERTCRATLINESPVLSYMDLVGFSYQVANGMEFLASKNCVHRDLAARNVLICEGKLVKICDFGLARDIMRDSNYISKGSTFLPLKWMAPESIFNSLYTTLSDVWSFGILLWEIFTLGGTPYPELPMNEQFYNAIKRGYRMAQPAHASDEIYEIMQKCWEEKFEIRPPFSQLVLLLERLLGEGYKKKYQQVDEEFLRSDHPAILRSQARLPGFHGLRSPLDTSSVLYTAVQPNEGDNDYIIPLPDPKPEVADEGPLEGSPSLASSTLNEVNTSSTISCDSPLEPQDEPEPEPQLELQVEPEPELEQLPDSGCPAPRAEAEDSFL
VEGFR2 (KDR) kinase, purified cytoplasmic domain KDR protein, sequence (P35968 786-1356): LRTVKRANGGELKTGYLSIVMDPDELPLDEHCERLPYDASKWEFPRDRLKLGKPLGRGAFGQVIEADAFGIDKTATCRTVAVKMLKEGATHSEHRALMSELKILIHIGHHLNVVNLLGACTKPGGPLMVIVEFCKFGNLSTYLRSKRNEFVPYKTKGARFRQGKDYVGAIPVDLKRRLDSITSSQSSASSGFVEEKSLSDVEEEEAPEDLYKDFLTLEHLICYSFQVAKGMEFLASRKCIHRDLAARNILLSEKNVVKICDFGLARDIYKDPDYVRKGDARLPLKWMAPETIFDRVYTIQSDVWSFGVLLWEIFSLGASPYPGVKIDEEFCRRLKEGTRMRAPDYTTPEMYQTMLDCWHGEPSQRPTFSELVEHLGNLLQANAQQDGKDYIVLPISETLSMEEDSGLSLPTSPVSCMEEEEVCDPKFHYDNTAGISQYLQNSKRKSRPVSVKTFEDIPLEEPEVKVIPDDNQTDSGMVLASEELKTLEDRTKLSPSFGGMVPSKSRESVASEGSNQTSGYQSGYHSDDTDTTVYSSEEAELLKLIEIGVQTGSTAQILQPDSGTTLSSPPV

| Compound | IC50 [1] | IC50 [2] |
| --- | --- | --- |
| CN1CCC(Oc2ccc(NC(=O)c3cccc(N4CCc5nc(N)ncc5C4)c3)cc2)CC1 [Example 11, 3-(2-amino-7,8-dihydropyrido[4,3-d]pyrimidin-6(5H)-yl)-N-(4-((1-methylpiperidin-4-yl)oxy)phenyl)benzamide] | > 1 µM | – |
| COc1cccc(NC(=O)c2cccc(N3CCc4nc(N)ncc4C3)c2)c1 [Example 7, 3-(2-amino-7,8-dihydropyrido[4,3-d]pyrimidin-6(5H)-yl)-N-(3-methoxyphenyl)benzamide] | 1.24 µM | – |
| Nc1ncc2c(n1)CCN(c1cccc(C(=O)Nc3cccc(C(F)(F)F)c3)c1)C2 [Example 5, 3-(2-amino-7,8-dihydropyrido[4,3-d]pyrimidin-6(5H)-yl)-N-(3-(trifluoromethyl)phenyl)benzamide] | 0.026 µM | – |
| CCc1cccc(NC(=O)c2cccc(N3CCc4nc(N)ncc4C3)c2)c1 [Example 9, 3-(2-amino-7,8-dihydropyrido[4,3-d]pyrimidin-6(5H)-yl)-N-(3-ethylphenyl)benzamide] | 0.052 µM | – |
| 4-(2-Methylsulfanyl-5,7-dihydro-pyrrolo[3,4-d]pyrimidin-6-yl)-pyridine-2-carboxylic acid (3-trifluoromethyl-phenyl)-amide [Example 126] | – | > 10 µM |
| Nc1ncc2c(n1)CCN(c1cccc(C(=O)NC3CCCC3)c1)C2 [Example 19, 3-(2-amino-7,8-dihydropyrido[4,3-d]pyrimidin-6(5H)-yl)-N-cyclopentylbenzamide] | > 10 µM | – |
| CC(C)c1cccc(NC(=O)c2cccc(N3CCc4nc(N)ncc4C3)c2)c1 [Example 2, 3-(2-amino-7,8-dihydropyrido[4,3-d]pyrimidin-6(5H)-yl)-N-(3-isopropylphenyl)benzamide] | 0.021 µM | – |
| CCc1ccc(NC(=O)c2cccc(N3CCc4nc(N)ncc4C3)c2)cc1 [Example 8, 3-(2-amino-7,8-dihydropyrido[4,3-d]pyrimidin-6(5H)-yl)-N-(4-ethylphenyl)benzamide] | 0.134 µM | – |
| CC(C)c1ccc(NC(=O)c2cccc(N3CCc4nc(N)ncc4C3)c2)cc1 [Example 12, 3-(2-amino-7,8-dihydropyrido[4,3-d]pyrimidin-6(5H)-yl)-N-(4-isopropylphenyl)benzamide] | 0.024 µM | – |
| CCCc1ccc(NC(=O)c2cccc(N3CCc4nc(N)ncc4C3)c2)cc1 [Example 10, 3-(2-amino-7,8-dihydropyrido[4,3-d]pyrimidin-6(5H)-yl)-N-(4-propylphenyl)benzamide] | 0.032 µM | – |
| CCCCNC(=O)c1cccc(N2CCc3nc(N)ncc3C2)c1 [Example 16, 3-(2-amino-7,8-dihydropyrido[4,3-d]pyrimidin-6(5H)-yl)-N-butylbenzamide] | > 10 µM | – |

Continued, values first:

| IC50 [1] | IC50 [2] | Compound |
| --- | --- | --- |
| > 1 µM | – | CCN(CC)C(=O)c1cccc(N2CCc3nc(N)ncc3C2)c1 [Example 21, 3-(2-amino-7,8-dihydropyrido[4,3-d]pyrimidin-6(5H)-yl)-N,N-diethylbenzamide] |
| > 10 µM | – | O=C(Nc1ccccc1)Nc1ccc(N2CCc3ccncc3C2)cc1 [Example 164, 1-[4-(3,4-dihydro-2,7-naphthyridin-2(1H)-yl)phenyl]-3-phenylurea] |
| > 1 µM | > 1 µM | Cc1ccc(NC(=O)Nc2ccc(N3CCc4ccncc4C3)cc2)cc1 [Example 165, 1-[4-(3,4-dihydro-2,7-naphthyridin-2(1H)-yl)phenyl]-3-(4-methylphenyl)urea] |
| > 10 µM | – | Cc1cccc(NC(=O)c2cccc(N3CCc4nc(N)ncc4C3)n2)c1 [Example 37, 6-(2-amino-7,8-dihydropyrido[4,3-d]pyrimidin-6(5H)-yl)-N-(3-methylphenyl)pyridine-2-carboxamide] |
| – | > 1 µM | CSc1ncc2c(n1)CCN(c1cc(C)cc(C(=O)Nc3cccc(C(F)(F)F)c3)c1)C2 [Example 140, 3-methyl-5-[2-(methylthio)-7,8-dihydropyrido[4,3-d]pyrimidin-6(5H)-yl]-N-[3-(trifluoromethyl)phenyl]benzamide] |
| – | > 1 µM | CSc1ncc2c(n1)CCN(c1cc(C)cc(C(=O)Nc3cccc(C(C)C)c3)c1)C2 [Example 142, N-(3-isopropylphenyl)-3-methyl-5-[2-(methylthio)-7,8-dihydropyrido[4,3-d]pyrimidin-6(5H)-yl]benzamide] |
| > 10 µM | – | O=C(Nc1ccc(N2CCc3ccncc3C2)cc1)c1cccc(C(F)(F)F)c1 [Example 162, N-[4-(3,4-dihydro-2,7-naphthyridin-2(1H)-yl)phenyl]-3-(trifluoromethyl)benzamide] |
| 0.164 µM | – | CC(C)(C)CCNC(=O)c1cccc(N2CCc3nc(N)ncc3C2)c1 [Example 20, 3-(2-amino-7,8-dihydropyrido[4,3-d]pyrimidin-6(5H)-yl)-N-(3,3-dimethylbutyl)benzamide] |
